27 compounds from the NIST ThermoML archive (doi:10.1021/je200637v) can be followed below.

Numbers after ± are expanded uncertainties.

This series is described as follows: activity coefficient (dimensionless); of the first substance listed, at infinite dilution; xn = mol fraction of the nth substance listed. The settings on record: Liquid, Chromatography, x1 = 0.

As for `CCO` [ethanol] + CCCCCCCC[N+](CCCCCCCC)(CCCCCCCC)CCCCCCCC.O=S(=O)([N-]S(=O)(=O)C(F)(F)F)C(F)(F)F, the activity coefficient amounted to 1.18 ± 0.04 (322.85 K), 1.12 ± 0.03 (332.65 K) and 1.05 ± 0.03 (343.15 K).
Taken in the same sequence, the figures for `CCO` [ethanol] + CCCCCCCC[N+](C)(C)C.O=S(=O)([N-]S(=O)(=O)C(F)(F)F)C(F)(F)F were 1.47 ± 0.06, 1.32 ± 0.05 and 1.19 ± 0.04.
As for `CCC(=O)CC` [pentan-3-one] + CCCC[N+](C)(CCCC)CCCC.O=S(=O)([N-]S(=O)(=O)C(F)(F)F)C(F)(F)F, the activity coefficient (322.85 K) was 0.5 ± 0.03, the activity coefficient (332.65 K) came to 0.54 ± 0.03 and the activity coefficient (343.15 K) came out at 0.56 ± 0.03.
In the same order, the values of `Cc1cccc(C)c1` [1,3-dimethylbenzene] + CCCC[N+](C)(CCCC)CCCC.O=S(=O)([N-]S(=O)(=O)C(F)(F)F)C(F)(F)F are 1.49 ± 0.06, 1.56 ± 0.06 and 1.56 ± 0.06.
For `Cc1cccc(C)c1` [1,3-dimethylbenzene] + CCCCCCCC[N+](CCCCCCCC)(CCCCCCCC)CCCCCCCC.O=S(=O)([N-]S(=O)(=O)C(F)(F)F)C(F)(F)F, the activity coefficient is 0.6 ± 0.03 (332.65 K) and 0.62 ± 0.03 (343.15 K).
With `OCC(F)(F)F` [2,2,2-trifluoroethanol] + CCCC[N+](C)(CCCC)CCCC.O=S(=O)([N-]S(=O)(=O)C(F)(F)F)C(F)(F)F, the activity coefficient reads like this: (322.85 K) 0.5 ± 0.03; (332.65 K) 0.48 ± 0.03; (343.15 K) 0.45 ± 0.03.
In the case of `Cc1cccc(C)c1` [1,3-dimethylbenzene] + CCCCCCCCCC[N+](C)(C)C.O=S(=O)([N-]S(=O)(=O)C(F)(F)F)C(F)(F)F, the activity coefficient (322.85 K) amounted to 1.11 ± 0.03, the activity coefficient (332.65 K) worked out at 1.14 ± 0.03 and the activity coefficient (343.15 K) came out at 1.11 ± 0.03.
Consider `CCC(C)=O` [butanone] + CCCC[N+](C)(CCCC)CCCC.O=S(=O)([N-]S(=O)(=O)C(F)(F)F)C(F)(F)F, for which the activity coefficient reads like this: (322.85 K) 0.4 ± 0.03; (332.65 K) 0.38 ± 0.03; (343.15 K) 0.35 ± 0.04.
Taken in the same sequence, the figures for `Cc1ccc(C)cc1` [1,4-dimethylbenzene] + CCCC[N+](C)(CCCC)CCCC.O=S(=O)([N-]S(=O)(=O)C(F)(F)F)C(F)(F)F were 1.51 ± 0.06, 1.62 ± 0.07 and 1.56 ± 0.06.
In the same order, the values of `CC#N` [acetonitrile] + CCCCCCCCCC[N+](C)(C)C.O=S(=O)([N-]S(=O)(=O)C(F)(F)F)C(F)(F)F are 0.44 ± 0.03, 0.44 ± 0.03 and 0.42 ± 0.03.
Taken in the same sequence, the figures for `OCC(F)(F)F` [2,2,2-trifluoroethanol] + CCCCCCCC[N+](CCCCCCCC)(CCCCCCCC)CCCCCCCC.O=S(=O)([N-]S(=O)(=O)C(F)(F)F)C(F)(F)F were 0.48 ± 0.03, 0.37 ± 0.03 and 0.36 ± 0.04.
For the compound `C=O` [methanal] + CCCC[N+](C)(CCCC)CCCC.O=S(=O)([N-]S(=O)(=O)C(F)(F)F)C(F)(F)F, the activity coefficient by setting is: (322.85 K) 0.11 ± 0.04; (332.65 K) 0.12 ± 0.04; (343.15 K) 0.13 ± 0.04.
In the same order, the values of `C1CCCCC1` [cyclohexane] + CCCCCCCC[N+](CCCCCCCC)(CCCCCCCC)CCCCCCCC.O=S(=O)([N-]S(=O)(=O)C(F)(F)F)C(F)(F)F are 0.95 ± 0.03, 0.94 ± 0.03 and 0.92 ± 0.03.
For the compound `CCCCCCCCCC` [decane] + CCCCCCCCCC[N+](C)(C)C.O=S(=O)([N-]S(=O)(=O)C(F)(F)F)C(F)(F)F, the activity coefficient by setting is: (322.85 K) 10.1 ± 0.46; (332.65 K) 9.82 ± 0.45; (343.15 K) 9.32 ± 0.43.
Taken in the same sequence, the figures for `CCCCO` [butan-1-ol] + CCCC[N+](C)(CCCC)CCCC.O=S(=O)([N-]S(=O)(=O)C(F)(F)F)C(F)(F)F were 2.1 ± 0.1, 1.89 ± 0.08 and 1.73 ± 0.07.
Taken in the same sequence, the figures for `CCCCCC` [hexane] + CCCCCCCC[N+](CCCCCCCC)(CCCCCCCC)CCCCCCCC.O=S(=O)([N-]S(=O)(=O)C(F)(F)F)C(F)(F)F were 1.3 ± 0.04, 1.29 ± 0.04 and 1.28 ± 0.04.
Taken in the same sequence, the figures for `CC(C)O` [propan-2-ol] + CCCC[N+](C)(CCCC)CCCC.O=S(=O)([N-]S(=O)(=O)C(F)(F)F)C(F)(F)F were 1.67 ± 0.07, 1.54 ± 0.06 and 1.4 ± 0.05.
Regarding `CCC(C)=O` [butanone] + CCCCCCCC[N+](CCCCCCCC)(CCCCCCCC)CCCCCCCC.O=S(=O)([N-]S(=O)(=O)C(F)(F)F)C(F)(F)F, the activity coefficient was found to be 0.29 ± 0.04 (322.85 K), 0.28 ± 0.04 (332.65 K) and 0.26 ± 0.04 (343.15 K).
Taken in the same sequence, the figures for `C1CCCCCC1` [cycloheptane] + CCCCCCCC[N+](CCCCCCCC)(CCCCCCCC)CCCCCCCC.O=S(=O)([N-]S(=O)(=O)C(F)(F)F)C(F)(F)F were 2.21 ± 0.1, 3.16 ± 0.14 and 4.37 ± 0.2.
In the same order, the values of `CC(C)CC(C)(C)C` [2,2,4-trimethylpentane] + CCCCCCCC[N+](C)(C)C.O=S(=O)([N-]S(=O)(=O)C(F)(F)F)C(F)(F)F are 8.1 ± 0.37, 7.66 ± 0.35 and 7.14 ± 0.33.
Taken in the same sequence, the figures for `CCCCCCC` [heptane] + CCCCCCCC[N+](C)(C)C.O=S(=O)([N-]S(=O)(=O)C(F)(F)F)C(F)(F)F were 8.27 ± 0.38, 7.81 ± 0.36 and 7.18 ± 0.33.
In the case of `C#CCCCCC` [1-heptyne] + CCCCCCCC[N+](CCCCCCCC)(CCCCCCCC)CCCCCCCC.O=S(=O)([N-]S(=O)(=O)C(F)(F)F)C(F)(F)F, the activity coefficient by setting is: (322.85 K) 0.84 ± 0.03; (332.65 K) 0.86 ± 0.03; (343.15 K) 0.87 ± 0.03.
Taken in the same sequence, the figures for `c1ccsc1` [thiophene] + CCCCCCCCCC[N+](C)(C)C.O=S(=O)([N-]S(=O)(=O)C(F)(F)F)C(F)(F)F were 0.65 ± 0.03, 0.7 ± 0.03 and 0.68 ± 0.03.
Taken in the same sequence, the figures for `Cc1ccccc1` [toluene] + CCCCCCCC[N+](CCCCCCCC)(CCCCCCCC)CCCCCCCC.O=S(=O)([N-]S(=O)(=O)C(F)(F)F)C(F)(F)F were 0.47 ± 0.03, 0.48 ± 0.03 and 0.49 ± 0.03.
In the same order, the values of `CO` [methanol] + CCCCCCCC[N+](C)(C)C.O=S(=O)([N-]S(=O)(=O)C(F)(F)F)C(F)(F)F are 0.92 ± 0.03, 0.78 ± 0.03 and 0.81 ± 0.03.
As to `c1ccncc1` [pyridine] + CCCCCCCCCC[N+](C)(C)C.O=S(=O)([N-]S(=O)(=O)C(F)(F)F)C(F)(F)F, the activity coefficient is, setting by setting: (322.85 K) 0.46 ± 0.03; (332.65 K) 0.47 ± 0.03; (343.15 K) 0.47 ± 0.03.
As to `CCCCCCCC` [octane] + CCCCCCCC[N+](CCCCCCCC)(CCCCCCCC)CCCCCCCC.O=S(=O)([N-]S(=O)(=O)C(F)(F)F)C(F)(F)F, the activity coefficient by setting is: (322.85 K) 1.73 ± 0.07; (332.65 K) 1.71 ± 0.07; (343.15 K) 1.69 ± 0.07.
